Reference: PubChem BioAssay AID220 (DTP/NCI, 2004)
“And” between values parts separate entries of the source, which are not always exact repeats. Equal entries are not always repeated. Inconclusive results are not listed.

System: CD8F1 mice, subcutaneous mammary adenocarcinoma, T/C%
Test: NCI In Vivo Anticancer Drug Screen. Data for tumor model Mammary Adenocarcinoma CD8F1 (subcutaneous) in CD8F1
Conditions: higher = larger tumour
Experimental: The antitumor activity of compounds was measured in mice bearing transplantable tumors. Survival or tumor size were measured and the results are expressed as the measurement made in the treated group (T) divided by the measurement made in the vehicle treated control group (C). The tumor model used in this assay is Mammary Adenocarcinoma CD8F1 (subcutaneous) in CD8F1

[1] = endpoint: median tumor weight change, dose: 62.5 mg/kg/injection, schedule: Q01DX001 (ip), vehicle: saline with Tween-80
[2] = endpoint: median tumor weight (est.), dose: 25.0 mg/kg/injection, schedule: Q07DX005 (ip), vehicle: saline with Tween-80
[3] = endpoint: median tumor weight (est.), dose: 100.0 mg/kg/injection, schedule: Q07DX005 (ip), vehicle: saline with Tween-80
[4] = endpoint: median tumor weight change, dose: 125.0 mg/kg/injection, schedule: Q01DX001 (ip), vehicle: saline with Tween-80
[5] = endpoint: median tumor weight change, dose: 250.0 mg/kg/injection, schedule: Q01DX001 (ip), vehicle: saline with Tween-80
[6] = endpoint: median tumor weight (est.), dose: 12.5 mg/kg/injection, schedule: Q07DX005 (ip), vehicle: saline
[7] = endpoint: median tumor weight (est.), dose: 25.0 mg/kg/injection, schedule: Q07DX005 (ip), vehicle: saline
[8] = endpoint: median tumor weight (est.), dose: 50.0 mg/kg/injection, schedule: Q07DX005 (ip), vehicle: saline

SMILES: COc1cccc2c1C(=O)c1c(O)c3c(c(O)c1C2=O)C[C@@](O)(C(=O)CO)C[C@@H]3OC1CC(N)C(O)C(C)O1 (stereo partly specified)
- T/C (endpoint: mean tumor weight, dose: 0.25 mg/kg/injection, schedule: Q01DX009 (ip), vehicle: saline): 38 % of control
- T/C (endpoint: mean tumor weight, dose: 0.5 mg/kg/injection, schedule: Q01DX009 (ip), vehicle: saline): 17 % of control
- T/C (endpoint: mean tumor weight, dose: 0.5 mg/kg/injection, schedule: Q07DX005 (ip), vehicle: saline): 85 % of control
- T/C (endpoint: mean tumor weight, dose: 0.5 mg/kg/injection, schedule: Q07DX006 (ip), vehicle: saline): 45 % of control and 55 % of control and 66 % of control
- T/C (endpoint: mean tumor weight, dose: 0.75 mg/kg/injection, schedule: Q07DX006 (ip), vehicle: saline): 46 % of control
- T/C (endpoint: mean tumor weight, dose: 1.0 mg/kg/injection, schedule: Q01DX009 (ip), vehicle: saline): 2 % of control
- T/C (endpoint: mean tumor weight, dose: 1.0 mg/kg/injection, schedule: Q07DX005 (ip), vehicle: saline): 89 % of control
- T/C (endpoint: mean tumor weight, dose: 1.5 mg/kg/injection, schedule: Q07DX006 (ip), vehicle: saline): 42 % of control
- T/C (endpoint: mean tumor weight, dose: 2.0 mg/kg/injection, schedule: Q07DX005 (ip), vehicle: saline): 40 % of control
- T/C (endpoint: mean tumor weight, dose: 2.5 mg/kg/injection, schedule: Q07DX006 (ip), vehicle: saline): 6 % of control
- T/C (endpoint: mean tumor weight, dose: 3.0 mg/kg/injection, schedule: Q07DX006 (ip), vehicle: saline): 3 % of control
- T/C (endpoint: mean tumor weight, dose: 4.0 mg/kg/injection, schedule: Q07DX006 (ip), vehicle: saline): 1 % of control
- T/C (endpoint: median tumor weight (est.), dose: 0.25 mg/kg/injection, schedule: Q07DX005 (ip), vehicle: saline): 208 % of control and 84 % of control
- T/C (endpoint: median tumor weight (est.), dose: 0.37 mg/kg/injection, schedule: Q07DX005 (ip), vehicle: water): 84 % of control
- T/C (endpoint: median tumor weight (est.), dose: 0.75 mg/kg/injection, schedule: Q07DX005 (ip), vehicle: saline): 62 % of control
- T/C (endpoint: median tumor weight (est.), dose: 0.75 mg/kg/injection, schedule: Q07DX005 (ip), vehicle: water): 47 % of control
- T/C (endpoint: median tumor weight (est.), dose: 1.25 mg/kg/injection, schedule: Q07DX005 (ip), vehicle: saline): 40 % of control
- T/C (endpoint: median tumor weight (est.), dose: 1.5 mg/kg/injection, schedule: Q07DX005 (ip), vehicle: saline): 85 % of control
- T/C (endpoint: median tumor weight (est.), dose: 1.5 mg/kg/injection, schedule: Q07DX005 (ip), vehicle: water): 81 % of control
- T/C (endpoint: median tumor weight (est.), dose: 1.8 mg/kg/injection, schedule: Q07DX005 (ip), vehicle: saline): 77 % of control
- T/C (endpoint: median tumor weight (est.), dose: 2.5 mg/kg/injection, schedule: Q07DX005 (ip), vehicle: saline): 14 % of control
- T/C (endpoint: median tumor weight (est.), dose: 2.7 mg/kg/injection, schedule: Q07DX005 (ip), vehicle: saline): 51 % of control
- T/C (endpoint: median tumor weight (est.), dose: 3.0 mg/kg/injection, schedule: Q07DX005 (ip), vehicle: saline): 29 % of control
- T/C (endpoint: median tumor weight (est.), dose: 4.4 mg/kg/injection, schedule: Q01DX001 (ip), vehicle: saline): 37 % of control
- T/C (endpoint: median tumor weight (est.), dose: 4.4 mg/kg/injection, schedule: Q07DX004 (ip), vehicle: saline): 11 % of control
- T/C (endpoint: median tumor weight (est.), dose: 6.0 mg/kg/injection, schedule: Q07DX005 (ip), vehicle: saline): 30 % of control
- T/C (endpoint: median tumor weight (est.), dose: 6.7 mg/kg/injection, schedule: Q01DX001 (ip), vehicle: saline): 28 % of control
- T/C (endpoint: median tumor weight (est.), dose: 6.7 mg/kg/injection, schedule: Q07DX004 (ip), vehicle: saline): 5 % of control
- T/C (endpoint: median tumor weight (est.), dose: 8.0 mg/kg/injection, schedule: Q07DX005 (ip), vehicle: water): 1 % of control
- T/C (endpoint: median tumor weight (est.), dose: 10.0 mg/kg/injection, schedule: Q01DX001 (ip), vehicle: saline): 15 % of control
- T/C (endpoint: median tumor weight (est.), dose: 15.0 mg/kg/injection, schedule: Q01DX001 (ip), vehicle: saline): 6 % of control
- T/C (endpoint: median tumor weight change, dose: 1.25 mg/kg/injection, schedule: Q01DX001 (ip), vehicle: water): 115 % of control
- T/C (endpoint: median tumor weight change, dose: 2.5 mg/kg/injection, schedule: Q01DX001 (ip), vehicle: water): 81 % of control
- T/C (endpoint: median tumor weight change, dose: 3.75 mg/kg/injection, schedule: Q01DX001 (ip), vehicle: saline): 96 % of control
- T/C (endpoint: median tumor weight change, dose: 4.4 mg/kg/injection, schedule: Q01DX001 (ip), vehicle: water): 27 % of control
- T/C (endpoint: median tumor weight change, dose: 5.0 mg/kg/injection, schedule: Q01DX001 (ip), vehicle: water): 18 % of control
- T/C (endpoint: median tumor weight change, dose: 6.7 mg/kg/injection, schedule: Q01DX001 (ip), vehicle: water): -5 % of control
- T/C (endpoint: median tumor weight change, dose: 7.5 mg/kg/injection, schedule: Q01DX001 (ip), vehicle: saline): 82 % of control
- T/C (endpoint: median tumor weight change, dose: 15.0 mg/kg/injection, schedule: Q01DX001 (ip), vehicle: water): -49 % of control

SMILES: CCCCC(C)(C(=O)OCC)C(=O)OCC
- T/C (endpoint: median tumor weight (est.), dose: 12.5 mg/kg/injection, schedule: Q07DX005 (ip), vehicle: Klucel (hydroxypropylcellulose) (HPC)): 94 % of control
- T/C (endpoint: median tumor weight (est.), dose: 200.0 mg/kg/injection, schedule: Q07DX005 (ip), vehicle: Klucel (hydroxypropylcellulose) (HPC)): 110 % of control
- T/C (endpoint: median tumor weight (est.), dose: 400.0 mg/kg/injection, schedule: Q07DX005 (ip), vehicle: Klucel (hydroxypropylcellulose) (HPC)): 212 % of control

SMILES: CCOC1=Cc2c(oc3c(C(C)(C)C)cc(OCC)cc23)OC(C(C)(C)C)=C1
- T/C (endpoint: median tumor weight change, dose: 15.6 mg/kg/injection, schedule: Q01DX001 (ip), vehicle: saline with Tween-80): 114 % of control
- T/C (endpoint: median tumor weight change, dose: 15.62 mg/kg/injection, schedule: Q01DX001 (ip), vehicle: saline with Tween-80): 98 % of control
- T/C [1]: 85 % of control and 106 % of control

SMILES: CCOC(C)C(/C=N/NC(N)=S)=NNC(N)=S (stereo unspecified)
- T/C [2]: 87 % of control and 109 % of control
- T/C (endpoint: median tumor weight (est.), dose: 50.0 mg/kg/injection, schedule: Q07DX005 (ip), vehicle: saline with Tween-80): 85 % of control and 88 % of control
- T/C [3]: 78 % of control and 96 % of control

SMILES: COC(=O)Nc1cn2cc(C(=O)c3cccs3)ccc2n1
- T/C (endpoint: median tumor weight change, dose: 62.5 mg/kg/injection, schedule: Q01DX001 (ip), vehicle: Klucel (hydroxypropylcellulose) (HPC)): 99 % of control
- T/C (endpoint: median tumor weight change, dose: 125.0 mg/kg/injection, schedule: Q01DX001 (ip), vehicle: Klucel (hydroxypropylcellulose) (HPC)): 71 % of control
- T/C (endpoint: median tumor weight change, dose: 250.0 mg/kg/injection, schedule: Q01DX001 (ip), vehicle: Klucel (hydroxypropylcellulose) (HPC)): 69 % of control

SMILES: CCOC(=O)c1[nH]c2cccc3c2c1CC(Br)C3=O (stereo unspecified)
- T/C [4]: 86 % of control
- T/C [5]: 52 % of control

SMILES: CC1=C(O)C(=O)[C@@H]2O[C@@H]2C1=O
- T/C (endpoint: median tumor weight change, dose: 7.8 mg/kg/injection, schedule: Q01DX001 (ip), vehicle: saline): 54 % of control
- T/C (endpoint: median tumor weight change, dose: 15.6 mg/kg/injection, schedule: Q01DX001 (ip), vehicle: saline): 81 % of control
- T/C (endpoint: median tumor weight change, dose: 31.25 mg/kg/injection, schedule: Q01DX001 (ip), vehicle: saline): 48 % of control

SMILES: CC(C)CCC(=O)c1ccoc1
- T/C (endpoint: median tumor weight change, dose: 0.31 mg/kg/injection, schedule: Q03HX003 (ip), vehicle: saline with Tween-80): 90 % of control
- T/C (endpoint: median tumor weight change, dose: 0.62 mg/kg/injection, schedule: Q03HX003 (ip), vehicle: saline with Tween-80): 102 % of control
- T/C (endpoint: median tumor weight change, dose: 1.25 mg/kg/injection, schedule: Q03HX003 (ip), vehicle: saline with Tween-80): 103 % of control

SMILES: OCCN1CCN(CC/C=C2/c3ccccc3Sc3ccc(C(F)(F)F)cc32)CC1
- T/C (endpoint: median tumor weight (est.), dose: 3.12 mg/kg/injection, schedule: Q07DX005 (ip), vehicle: saline): 70 % of control
- T/C (endpoint: median tumor weight (est.), dose: 6.25 mg/kg/injection, schedule: Q07DX005 (ip), vehicle: saline): 107 % of control
- T/C [6]: 120 % of control
- T/C [7]: 101 % of control
- T/C [8]: 81 % of control

SMILES: OCC1(CO)COC2(CCCCC2)N1
- T/C [6]: 78 % of control
- T/C [7]: 64 % of control
- T/C [8]: 112 % of control
- T/C (endpoint: median tumor weight (est.), dose: 100.0 mg/kg/injection, schedule: Q07DX005 (ip), vehicle: saline): 105 % of control
- T/C (endpoint: median tumor weight (est.), dose: 200.0 mg/kg/injection, schedule: Q07DX005 (ip), vehicle: saline): 81 % of control
- T/C (endpoint: median tumor weight (est.), dose: 400.0 mg/kg/injection, schedule: Q07DX005 (ip), vehicle: saline): 93 % of control

SMILES: C/C=C/C=C/c1cc2cc3c(c(O)c2c(=O)[nH]1)C1(CC3)C(O)=c2c(=O)c3c(=O)cc(OC)c(=O)c=3c(=O)c2=C1O (stereo unspecified)
- T/C (endpoint: median tumor weight change, dose: 2.5 mg/kg/injection, schedule: Q01DX001 (ip), vehicle: DMSO): 106 % of control
- T/C (endpoint: median tumor weight change, dose: 5.0 mg/kg/injection, schedule: Q01DX001 (ip), vehicle: DMSO): 79 % of control

SMILES: C[n+]1c(/C=N/NC(N)=S)ccc2ccccc21
- T/C [1]: 108 % of control
- T/C [4]: 181 % of control
- T/C [5]: 77 % of control

SMILES: O=C1N[C@@H]2C(=C[C@H](O)[C@@H](O)[C@H]2O)c2cc3c(c(O)c21)OCO3
- T/C (endpoint: median tumor weight change, dose: 3.12 mg/kg/injection, schedule: Q01DX001 (ip), vehicle: saline with Tween-80): 75 % of control
- T/C (endpoint: median tumor weight change, dose: 6.25 mg/kg/injection, schedule: Q01DX001 (ip), vehicle: saline with Tween-80): 90 % of control
- T/C (endpoint: median tumor weight change, dose: 12.5 mg/kg/injection, schedule: Q01DX001 (ip), vehicle: saline with Tween-80): 60 % of control

SMILES: CC(=S)NC(O)C(=O)c1ccccc1 (stereo unspecified)
- T/C [2]: 79 % of control
- T/C [3]: 96 % of control
- T/C (endpoint: median tumor weight (est.), dose: 200.0 mg/kg/injection, schedule: Q07DX005 (ip), vehicle: saline with Tween-80): 111 % of control
